# Tests used:
# [1] = system: HeLa; test: Antiproliferation activity against human HeLa cells assessed as reduction in cell growth measured after 48 to 72 hrs by CCK-8 assay; assay type: functional, cell-based
# [2] = system: SiHa; test: Antiproliferation activity against human SiHa cells assessed as reduction in cell growth measured after 48 to 72 hrs by CCK-8 assay; assay type: functional, cell-based
# [3] = Antiproliferation activity against human MS751 cells assessed as reduction in cell growth measured after 48 to 72 hrs by CCK-8 assay; assay type: functional, cell-based
# [4] = system: HUVEC; test: Vascular disruptive activity against HUVEC-formed vascular tube assessed as damage of vascular tube on matrigel substratum at 0.2 uM measured after 2 hrs; assay type: functional, Homo sapiens
# [5] = system: HeLa; test: Induction of cell cycle arrest in human HeLa cells assessed as 2N cells at 1.5 nM measured after 24 hrs by propidium iodide staining based flow cytometric analysis analysis ( Rvb = 41.7%); assay type: functional
# [6] = system: HeLa; test: Induction of cell cycle arrest in human HeLa cells assessed as 4N cells at 6 nM measured after 24 hrs by propidium iodide staining based flow cytometric analysis analysis ( Rvb = 17.1%); assay type: functional
# [7] = system: HeLa; test: Induction of cell cycle arrest in human HeLa cells assessed as >4N cells at 6 nM measured after 24 hrs by propidium iodide staining based flow cytometric analysis analysis relative to control; assay type: functional
# [8] = system: HeLa; test: Antiproliferative activity against human HeLa cells assessed as reduction in cell growth measured after 48 to 72 hrs by CCK-8 assay; assay type: functional, cell-based
# [9] = Antiproliferative activity against human HeLa/DDP cells assessed as reduction in cell growth measured after 48 to 72 hrs by CCK-8 assay; assay type: functional, cell-based
# [10] = Antiproliferative activity against human SiHa/DDP cells assessed as reduction in cell growth measured after 48 to 72 hrs by CCK-8 assay; assay type: functional, cell-based, SiHa/cDDP
# [11] = system: SiHa; test: Antiproliferative activity against human SiHa cells assessed as reduction in cell growth measured after 48 to 72 hrs by CCK-8 assay; assay type: functional, cell-based
# [12] = Aqueous solubility of compound at pH 7.0 phosphate buffer incubated overnight by HPLC analysis analysis; assay type: physicochemical
# [13] = Aqueous solubility of compound at pH 7.4 in phosphate buffer incubated overnight by HPLC analysis; assay type: physicochemical
# [14] = Aqueous solubility of compound at pH 2.0 in phosphate buffer incubated overnight by HPLC analysis; assay type: physicochemical
# [15] = Octanol-water partition coefficient, logP of the compound incubated overnight by HPLC analysis; assay type: physicochemical
# [16] = Cytotoxicity against HK-2 cells assessed as reduction in cell growth measured after 24 hrs by microplate reader analysis; assay type: toxicity, cell-based; details: human
# [17] = molecular target: Tubulin beta (Homo sapiens) (UniProt P68371+Q9H4B7+Q13509+P04350+Q3ZCM7+P07437+Q13885+Q9BVA1+Q9BUF5+A6NNZ2); test: Binding affinity to beta-tubulin colchicine binding site in human HeLa cells assessed as decrease of adduct formation by measuring gray value measured at 25 uM incubated for 2 hrs followed by addition of EBI measured after 1.5 hrs by EBI competition based Western blotting analysis; assay type: cell-based; details: time 3.5 hrs
# [18] = molecular target: Tubulin (Homo sapiens) (UniProt P68371+Q9H4B7+P0DPH7+P68366+Q13509+Q71U36+P04350+Q3ZCM7+P07437+P68363+Q9BQE3+Q6PEY2+Q13885+Q9BVA1+Q9BUF5); test: Induction of microtubule disruption in human HeLa cells assessed as loss of cellular structure at 0.1 to 0.2 uM measured after 24 hrs by DAPI staining based laser scanning confocal microscopic analysis; assay type: cell-based; details: dose 0.1-0.2 µM, DDE = dose-dependent effect
# [19] = system: HeLa; test: Induction of cell cycle arrest in human HeLa cells assessed as 2N cells at 0.1 uM measured after 24 hrs by propidium iodide staining based flow cytometric analysis analysis ( Rvb = 47.4%); assay type: functional
# [20] = system: HeLa; test: Induction of cell cycle arrest in human HeLa cells assessed as 4N cells at 0.2 uM measured after 24 hrs by propidium iodide staining based flow cytometric analysis analysis ( Rvb = 20.3%); assay type: functional
# [21] = system: HeLa; test: Induction of cell cycle arrest in human HeLa cells assessed as accumulation of cells at G2/M phase at 0.4 uM after 24 hrs by propidium iodide staining based flow cytometric analysis (reference value: 20.3%); assay type: functional
# [22] = system: HeLa; test: Induction of apoptosis in human HeLa cells assessed as viable cells at 0.1 uM measured after 24 hrs by Annexin V-FITC/7-AAD staining based flow cytometric analysis (reference value: 70.1%); assay type: functional; details: read-out: Activity
# [23] = system: HeLa; test: Induction of apoptosis in human HeLa cells assessed as necrotic cells at 0.1 uM measured after 24 hrs by Annexin V-FITC/7-AAD staining based flow cytometric analysis (reference value: 0.56%); assay type: functional
# [24] = system: HeLa; test: Inhibition of colony formation in human HeLa cells at 100 nM and treated for every 48 hrs with fresh medium measured after 14 days by crystal violet staining method; assay type: functional; design: scale not given: the % may be the effect or the level left; details: time 14 day
# [25] = system: HeLa; test: Inhibition of colony formation in human HeLa cells at 50 nM and treated for every 48 hrs with fresh medium measured after 14 days by crystal violet staining method ( Rvb = 67.3%); assay type: functional; design: scale not given: the % may be the effect or the level left; details: time 14 day
# [26] = Cmax in C57 nude mouse at 30 mg/kg, ip measured at 0.083 to 24 hrs by LC/MS/MS analysis; assay type: ADME, organism-based; design: dose 30 mg/kg, time 0.083-24 hrs, route ip; details: in vivo
# [27] = system: HeLa; test: Antitumor activity against human HeLa cells xenografted in BABL/c mouse assessed assessed as reduction in tumor volume at 30 mg/kg, ip administered daily for 21 days and measured every 3 days ( Rvb = 2336 mm3); assay type: functional; details: time 21 day
# [28] = Nephrotoxicity in BABL/c mouse assessed as increased creatinine level at 30 mg/kg, ip administered daily for 21 days relative to vehicle; assay type: toxicity, organism-based; details: in vivo, 504 h, time 21 day
# [29] = Nephrotoxicity in BABL/c mouse assessed as increased uric acid level at 30 mg/kg, ip administered daily for 21 days relative to vehicle; assay type: toxicity, organism-based; details: in vivo, 504 h, time 21 day
# [30] = Toxicity against BABL/c mouse assessed as morphological changes in liver at 30 to 60 mg/kg, ip administered daily for 21 days by H and E staining method; assay type: organism-based; details: in vivo, 504 h, dose 30-60 mg/kg, time 21 day
# [31] = Toxicity against BABL/c mouse assessed as morphological changes in liver at 30 mg/kg, ip administered daily for 21 days followed by addition of 3 mg/kg DDP for every 2 days by H and E staining method; assay type: organism-based; details: in vivo, 504 h, time 21 day
# [32] = Toxicity against BABL/c mouse assessed as morphological changes in spleen at 30 to 60 mg/kg, ip administered daily for 21 days by H and E staining method; assay type: organism-based; details: in vivo, 504 h, dose 30-60 mg/kg, time 21 day
# [33] = Toxicity against BABL/c mouse assessed as morphological changes in lung at 30 to 60 mg/kg, ip administered daily for 21 days by H and E staining method; assay type: organism-based; details: in vivo, 504 h, dose 30-60 mg/kg, time 21 day
# [34] = Toxicity against BABL/c mouse assessed as glomerular crescent hyperplasia in kidney at 60 mg/kg, ip administered daily for 21 days by H and E staining method; assay type: organism-based; details: in vivo, 504 h, time 21 day
# [35] = system: SiHa; test: Potency index, ratio of cisplatin IC50 to test compound IC50 for cytotoxicity against human DDP resistant SiHa cells; assay type: functional
SMILES,IC50 [1] [nM],IC50 [2] [nM],IC50 [3] [nM],IC50 [8] [nM],IC50 [9] [nM],IC50 [10] [nM],IC50 [11] [nM],solubility [12] [µg/mL],solubility [13] [µg/mL],solubility [14] [µg/mL],logP [15],IC50 at 24 h [16] [nM],also measured
COc1ccc(/C=C\c2cc(OC)c(OC)c(OC)c2)cc1O [COMBRETASTATIN A4],4.2,29,8,4.2,10300,14400,29,9.85,4.34,3.23,2.04,116000,Activity [4]: 100%; Activity [5]: 43.1%; Activity [6]: 35.3%; Activity [7]: 6.35%
CCOc1ccc(-c2cncnc2-c2cc(OC)c(OC)c(OC)c2)cc1Cl,90,150,110,90,7210,6280,150,8.12,17.1,31.7,2.36,188000,Activity [17]: 1.17; Activity [18]: Dde; Activity [19]: 22.7%; Activity [20]: 47.6%; Activity [21]: 71.7%; viability at 0.1 µM [22]: 56.3%; Activity [23]: 0.5%; Activity [24]: 100%; Activity [25]: 36.8%; Cmax [26]: 6220 ng/mL; Activity [27]: 1578 mm3; Activity [28]: 31%; Activity [29]: 21%; Activity [30]: Non-Toxic; Activity [31]: Non-Toxic; Activity [32]: Non-Toxic; Activity [33]: Non-Toxic; Activity [34]: Toxic; Ratio IC50 [35]: 2.7
